Experimental data published in PubChem BioAssay (NCI).
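GI50 marks 50% less growth. TGI marks complete inhibition of growth.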

How the values were obtained:
Test in all cases: NCI-60 cell line screen, 384-well format
SF-268 CNS = test system: SF-268 CNS
A549 NSCLC = test system: A549 NSCLC
CCRF-CEM leukemia = test system: CCRF-CEM leukemia
HOP-92 NSCLC = test system: HOP-92 NSCLC
OVCAR-4 ovarian = test system: OVCAR-4 ovarian
SK-MEL-5 melanoma = test system: SK-MEL-5 melanoma
OVCAR-5 ovarian = test system: OVCAR-5 ovarian
HOP-62 NSCLC = test system: HOP-62 NSCLC
UACC-62 melanoma = test system: UACC-62 melanoma
786-0 renal = test system: 786-0 renal
MCF7 breast = test system: MCF7 breast
SF-295 CNS = test system: SF-295 CNS
PC-3 prostate = test system: PC-3 prostate
HT29 colon = test system: HT29 colon
NCI-H522 lung = test system: NCI-H522 lung
KM12 colon = test system: KM12 colon
HCT-15 colon = test system: HCT-15 colon
NCI-H23 lung = test system: NCI-H23 lung
LOX IMVI melanoma = test system: LOX IMVI melanoma
SN12C renal = test system: SN12C renal
BT-549 breast = test system: BT-549 breast
HCC-2998 colon = test system: HCC-2998 colon
T-47D breast = test system: T-47D breast
CAKI-1 renal = test system: CAKI-1 renal
NCI-H226 lung = test system: NCI-H226 lung
MALME-3M melanoma = test system: MALME-3M melanoma
SK-MEL-2 melanoma = test system: SK-MEL-2 melanoma
NCI-H460 NSCLC = test system: NCI-H460 NSCLC
MDA-MB-468 breast = test system: MDA-MB-468 breast

`O=C(NS(=O)(=O)c1ccc(NC[C@H]2COCCO2)c([N+](=O)[O-])c1)c1ccc(N2CCN(CC3=C(c4ccc(Cl)cc4)CC4(CCC4)CC3)CC2)cc1Oc1cnc2[nH]ccc2c1` showed a TGI (SF-268 CNS) of 8910 nM, a GI50 (A549 NSCLC) of 2340 nM and a TGI (A549 NSCLC) of 7540 nM. For the same compound, the GI50 (CCRF-CEM leukemia) was 1340 nM, the TGI (CCRF-CEM leukemia) was 2640 nM and the GI50 (HOP-92 NSCLC) was 1560 nM. For the same compound, the TGI (HOP-92 NSCLC) was 3100 nM, the GI50 (OVCAR-4 ovarian) was 2640 nM and the TGI (OVCAR-4 ovarian) was 6470 nM. The GI50 (SK-MEL-5 melanoma) was 1810 nM, the TGI (SK-MEL-5 melanoma) was 3330 nM and the GI50 (OVCAR-5 ovarian) was 2150 nM. For the same compound, the TGI (OVCAR-5 ovarian) was 4280 nM, the GI50 (HOP-62 NSCLC) was 2240 nM and the TGI (HOP-62 NSCLC) was 5190 nM. It also gave a GI50 (UACC-62 melanoma) of 1960 nM, a TGI (UACC-62 melanoma) of 3780 nM and a GI50 (786-0 renal) of 2410 nM. The TGI (786-0 renal) was 6750 nM, the GI50 (MCF7 breast) was 2650 nM and the TGI (MCF7 breast) was 8800 nM. The GI50 (SF-295 CNS) was 1390 nM, the TGI (SF-295 CNS) was 3240 nM and the GI50 (PC-3 prostate) was 2120 nM. It also gave a TGI (PC-3 prostate) of 5150 nM, a GI50 (HT29 colon) of 2320 nM and a TGI (HT29 colon) of 5170 nM. It also gave a GI50 (NCI-H522 lung) of 3000 nM, a TGI (NCI-H522 lung) of 7320 nM and a GI50 (KM12 colon) of 2510 nM. For the same compound, the TGI (KM12 colon) was 6150 nM, the GI50 (HCT-15 colon) was 2020 nM and the TGI (HCT-15 colon) was 4070 nM. The GI50 (NCI-H23 lung) was 1890 nM, the TGI (NCI-H23 lung) was 4050 nM and the GI50 (LOX IMVI melanoma) was 2800 nM. For the same compound, the TGI (LOX IMVI melanoma) was 5300 nM, the GI50 (SN12C renal) was 2520 nM and the TGI (SN12C renal) was 7270 nM. For the same compound, the GI50 (BT-549 breast) was 2630 nM, the TGI (BT-549 breast) was 5740 nM and the GI50 (HCC-2998 colon) was 1810 nM. For the same compound, the TGI (HCC-2998 colon) was 3370 nM, the GI50 (T-47D breast) was 2920 nM and the TGI (T-47D breast) was 9740 nM. It also gave a GI50 (CAKI-1 renal) of 2170 nM, a TGI (CAKI-1 renal) of 5110 nM and a GI50 (NCI-H226 lung) of 1980 nM. It also gave a TGI (NCI-H226 lung) of 4200 nM, a GI50 (MALME-3M melanoma) of 2280 nM and a TGI (MALME-3M melanoma) of 4370 nM. For the same compound, the GI50 (SK-MEL-2 melanoma) was 1990 nM, the TGI (SK-MEL-2 melanoma) was 3690 nM and the GI50 (NCI-H460 NSCLC) was 1650 nM. For the same compound, the TGI (NCI-H460 NSCLC) was 3980 nM, the GI50 (MDA-MB-468 breast) was 1830 nM and the TGI (MDA-MB-468 breast) was 3860 nM.
